# From patent US20160051493A1, “METHODS OF TREATMENT OF KERATINOCYTE-DERIVED LESIONS” (THE TRUSTEES OF COLUMBIA UNIVERSITY IN THE CITY OF NEW YORK, priority 2012, published 2016)
# “Also recorded” adds a separate entry of the source. Read-outs that look alike come from different tables or passages of the source.
# Key:
# [1] = tested on: normal human epidermal keratinocytes; assay: Ratiometric fura-2 live-cell calcium imaging of keratinocytes; assay type: cell-based; settings: for % Responders (undifferentiated) Mean ± SEM or SD: growth conditions, saturating agonist (4αPDD 3 μM, camphor 10 mM, 2-APB 100 μM, capsaicin 1 μM, mustard oil 300 μM), SD for capsaicin and mustard oil; for cytoplasmic Ca2+ signals in undifferentiated keratinocytes: 0.15%, within 1 minute of perfusion, versus vehicle
# Protocol: (§1) Normal human keratinocytes were isolated from human foreskins by undergoing two enzymatic dissociation steps, first in dispase then in trypsin. Cells were cultured in EpiLife supplemented with human keratinocyte growth supplement (HKGS; Invitrogen). For all experiments with undifferentiated cells, keratinocytes were harvested or images at ˜75% confluency. Differentiation was induced by adding CaCl2 to the EpiLife media to reach a final [Ca2+] of 1.2 mM. Cells were typically cultured for 3 days under differentiation conditions before they were assayed. Keratinocytes were cultured for <5 passages. Purified Camphor (CAS #76-22-2), 2-APB (Tocris) or vehicle (1% EtOH)-containing media were used as indicated.
# Human keratinocytes and SCC cells were washed in Ringer's solution (in mM: NaCl 140, KCl 5, D-glucose 10, HEPES 10, CaCl2 2, MgCl2 2, pH 7.2) and loaded with 5 μM fura-2AM and 1 μM pluronic (Invitrogen) for 30 minutes in the dark. During live-cell imaging, saturating concentrations of TRP agonists (10 mM Camphor, 100 μM 2-APB 1 μM Capsaicin, 300 μM Mustard oil or 3 μM 4αPDD) in Ringer's were used. Cells were imaged for 20 s to establish a baseline and then acutely treated with each agonist for 60 seconds. Imaging was performed on an Olympus IX81 microscope with a 20× (NA 0.17) objective and a Hamamatsu ORCA-R2 camera. 340- and 380-nm excitation and 540-nm emission filters were used to capture fura-2 fluorescence. Data are expressed as a ratio of fluorescent signals (340/380). All data acquisition was performed in MetaFluor. Data analysis was performed with custom algorithms in IgorPro. Cells with baseline levels ±2 SD above the mean were excluded from analysis as unhealthy. Responders were designated as cells whose 340/380 ratio was ≧20% above baseline.
# TRP channels are selectively activated by endogenous and exogenous ligands at micromolar to millimolar concentrations. Since TRP channel activity increases over this range to allow graded Ca^2+ influx, receptor activity levels can be monitored by live-cell Ca^2+ imaging. A ratiometric calcium indicator (Fura-2) was employed to determine whether a panel of TRP-channel agonists elicited cytoplasmic calcium increases in human epidermal keratinocytes. (FIG. 1A-1E, FIG. 2A-2B, and Table 3).
# Normal human keratinocytes were cultured in low-calcium media to promote proliferation or in 1.2-mM calcium media to induce differentiation. For live-cell imaging, keratinocytes were then washed and bathed in Ringer's solution containing 2 mM calcium so that calcium signals could be directly compared between cell populations.
# In keratinocytes, increased intracellular calcium stimulates the terminal differentiation process. To determine whether camphor oil and its abundant constituents are directly bioactive on epithelial keratinocytes, a ratiometric Ca2+ indictor (Fura-2) was employed to test whether a panel of terpenes elicited cytoplasmic Ca2+ increases in undifferentiated human epidermal keratinocytes (FIG. 19A-19C). Keratinocytes were cultured according to our standard methods. For live-cell imaging, keratinocytes were bathed in Ringer's solution containing 2 mM Ca2+.
# [2] = 0.5 to 5 percent ointment or liquid, once or twice a day for two to four weeks; cited from earlier work
# [3] = tested on: normal human keratinocytes; assay: Keratinocyte cell counts (DAPI), morphology and EdU proliferation assay after 24 h treatment; settings: in the presence of camphor
# Protocol: as §1
# Cells were treated with 2-APB or camphor for 24 hours at 37° C., exposed to EdU for 45 min, fixed and stained with DAPI for cell counting. EdU Click-It assays (Invitrogen) were used to assess cell-cycle entry. The cells were then fixed and stained with DAPI. Three fields per well were assayed via a 20× objective and there were 4 wells per treatment in each experiment. EdU=5-ethynyl-2′-deoxyuridine.
# As Ca^2+ triggers the commitment switch from proliferation to differentiation in keratinocytes, it was reasoned that increasing intracellular calcium by incubating keratinocytes in TRP agonists might be sufficient to induce this cell-fate switch in low-calcium growth media. To test this hypothesis, normal human keratinocytes were cultured for 24 hours under low-Ca^2+ conditions in the presence of low (12.5 μM), half-maximal (50 μM) and saturating (100 μM) concentrations of 2-APB (FIG. 3A) or camphor (0-8 mM) (FIG. 3E). These TRP agonists were chosen because they reliably elicited intracellular calcium signaling in normal human keratinocytes (FIG. 1A-1E).
# As camphor can activate both TRPV3 and TRPV1 channels, these experiments were repeated in the presence of a specific TRPV1 antagonist, AMG-9810 (Gavva et al., 2005).
# [4] = tested on: TRPV3; settings: reported in literature; cited from earlier work
# [5] = tested on: skin tumors; settings: mouse, in vivo; cited from earlier work
# [6] = tested on: normal keratinocytes; assay: In vivo keratinocyte proliferation (EdU, flow cytometry) in healthy mouse skin; set-up: species or system mice; settings: 20% topical, five consecutive days
# Protocol: Age matched FVB (female mice purchased from Jackson labs) aged 6-8 weeks were shave on their dorsal sides. Mice were then treated for five consecutive days with vehicle, 20% camphor white oil, 20% eucalyptol, 20% α-pinene, 20% dipentene, or 20% γ-terpinene (2-6 mice per group). Mice were then injected with EdU and sacrificed one hour later. The epidermis was isolated and stained for Itgα6, Sca1+, and EDU. Itgα6+Sca1+EdU+ cells were then identified on a flow cytometer.
# To test whether effects of camphor white oil on normal keratinocytes are TrpV3 dependent proliferation in TrpV3 mutant and wild type mice treated with camphor oil was analyzed. TrpV3 mutant and wild type mice aged 6-8 weeks were shaved on their dorsal sides. Mice were then treated for five consecutive days with vehicle or 20% camphor oil (4-5 mice per group). Mice were then injected with EdU (5-ethynyl-2′-deoxyuridine) and sacrificed one hour later. The epidermis was isolated and stained for Itga6, Sca1, and EdU. Itga6+Sca1+EdU+ cells were then identified on a flow cytometer to identify cells in the intrafollicular epidermis that are actively proliferating.
# [7] = tested on: precancerous lesions and SCCs; assay type: in vivo; settings: 20% wt/wt in acetone, topical once daily, five weeks
# [8] = responders F340:F380 increase ≧20%
smiles,measurement,setting,value
"CCCCCCCCCC(=O)O[C@@H]1[C@@H](C)[C@@]2(O)[C@@H](C=C(CO)C[C@@]3(O)C(=O)C(C)=C[C@@H]23)[C@@H]2C(C)(C)[C@]12OC(=O)CCCCCCCCC [4αPDD, 4α-phorbol-12,13 didecanoate, reference compound]",% Responders (differentiated) Mean ± SEM,"[1]; differentiated in 1.2 mM Ca2+, responders F340:F380 increase ≧20%, 4αPDD 3 μM, camphor 10 mM, 2-APB 100 μM",70.8 ± 11.1%
same,% Responders (undifferentiated) Mean ± SEM or SD,[1]; [8],84.8 ± 1.6%
same,keratinocytes with robust increases in intracellular Ca2+,[1]; growth or differentiation conditions,> 70%
O=c1[nH]cc(F)c(=O)[nH]1 [5-fluorouracil],cure rates,[2],up to 93%
"CC(C)(C)c1ccc(/C=C/C(=O)Nc2ccc3c(c2)OCCO3)cc1 [AMG-9810, (E)-3-(4-t-butylphenyl)-N-(2,3-dihydrobenzo[b][1,4]dioxin-6-yl)acrylamide, reference compound]",effect of TRPV1 inhibition on camphor's effects on keratinocyte proliferation,[3],did not alter
"CC1(C)C2CCC1(C)C(O)C2 (centres unmarked) [Borneol, reference compound]",effectiveness as a TRPV3 agonist relative to camphor,[4],more effective than camphor
"COc1cc(CNC(=O)CCCC/C=C/C(C)C)ccc1O [Capsaicin, reference compound]",% Responders (undifferentiated) Mean ± SEM or SD,[1]; [8],2.3+/−2.6%
"CC1(C)C2CCC1(CS(=O)(=O)O)C(=O)C2=Cc1ccc(C=C2C(=O)C3(CS(=O)(=O)O)CCC2C3(C)C)cc1 [Ecamsule, Terephthalylidene Dicamphor Sulfonic Acid]",Results of safety: against skin tumors in mice,[5],Protects
"C=CCN=C=S [Mustard oil, reference compound]",% Responders (undifferentiated) Mean ± SEM or SD,[1]; [8],0.6 ± 1.2%^
same,% Responders (undifferentiated) Mean ± SEM or SD,"[1]; responders F340:F380 increase ≧20%, listed as Mustard Oil",0.6+/−1.2%
same,% Responders (undifferentiated) Mean ± SEM or SD,"[1]; responders F340:F380 increase ≧20%, listed as mustard oil",0.6+/−1.2%
"C=C(C)[C@H]1CC=C(C)CC1 [dipentene, Dipentene]",keratinocyte proliferation (Itgα6+Sca1+EdU+ cells) compared with vehicle,[6],significant increases
same,premalignant tumors per mouse versus vehicle,[7],antitumor effects
same,premalignant tumors per mouse versus vehicle,[7]; listed as Dipentene,most striking tumor reductions
"CC12CCC(CC1)C(C)(C)O2 [eucalyptol, Eucalyptol]",cytoplasmic Ca2+ signals in undifferentiated keratinocytes,[1],no effects
same,keratinocyte proliferation (Itgα6+Sca1+EdU+ cells) compared with vehicle,[6],significant increases
"CC1=CCC2CC1C2(C)C (stereo not drawn) [α-pinene, α-Pinene]",cytoplasmic Ca2+ signals in undifferentiated keratinocytes,[1],stimulated detectable calcium signals; also recorded: induced calcium increases
same,keratinocyte proliferation (Itgα6+Sca1+EdU+ cells) compared with vehicle,[6],significant increases
same,premalignant tumors per mouse versus vehicle,[7],antitumor effects; also recorded: most striking tumor reductions
"CC1=CCC(C(C)C)=CC1 [γ-terpinene, γ-Terpinene]",keratinocyte proliferation (Itgα6+Sca1+EdU+ cells) compared with vehicle,[6],significant increases
